Assay results taken from US7410975B2, “Small molecule toll-like receptor (TLR) antagonists” (Coley Pharmaceutical Group, Inc., priority 2003, dated 2008).
Counter-ions that a name gives are not always drawn.

biological target: T1, human TLR3 (hTLR3) (Homo sapiens, UniProt O15455); test: Antagonist screen, hTLR3-NFκB-293 cells, NF-κB-luciferase reporter, with EC50 of poly(I:C); format: cell-based; conditions: compound at 0.5, 5, 50 μg/ml; EC50 concentration of poly(I:C); 16 h; NF-κB-luciferase
T1 construct: expressed in transfected cells
T1 sequence (O15455 24-904): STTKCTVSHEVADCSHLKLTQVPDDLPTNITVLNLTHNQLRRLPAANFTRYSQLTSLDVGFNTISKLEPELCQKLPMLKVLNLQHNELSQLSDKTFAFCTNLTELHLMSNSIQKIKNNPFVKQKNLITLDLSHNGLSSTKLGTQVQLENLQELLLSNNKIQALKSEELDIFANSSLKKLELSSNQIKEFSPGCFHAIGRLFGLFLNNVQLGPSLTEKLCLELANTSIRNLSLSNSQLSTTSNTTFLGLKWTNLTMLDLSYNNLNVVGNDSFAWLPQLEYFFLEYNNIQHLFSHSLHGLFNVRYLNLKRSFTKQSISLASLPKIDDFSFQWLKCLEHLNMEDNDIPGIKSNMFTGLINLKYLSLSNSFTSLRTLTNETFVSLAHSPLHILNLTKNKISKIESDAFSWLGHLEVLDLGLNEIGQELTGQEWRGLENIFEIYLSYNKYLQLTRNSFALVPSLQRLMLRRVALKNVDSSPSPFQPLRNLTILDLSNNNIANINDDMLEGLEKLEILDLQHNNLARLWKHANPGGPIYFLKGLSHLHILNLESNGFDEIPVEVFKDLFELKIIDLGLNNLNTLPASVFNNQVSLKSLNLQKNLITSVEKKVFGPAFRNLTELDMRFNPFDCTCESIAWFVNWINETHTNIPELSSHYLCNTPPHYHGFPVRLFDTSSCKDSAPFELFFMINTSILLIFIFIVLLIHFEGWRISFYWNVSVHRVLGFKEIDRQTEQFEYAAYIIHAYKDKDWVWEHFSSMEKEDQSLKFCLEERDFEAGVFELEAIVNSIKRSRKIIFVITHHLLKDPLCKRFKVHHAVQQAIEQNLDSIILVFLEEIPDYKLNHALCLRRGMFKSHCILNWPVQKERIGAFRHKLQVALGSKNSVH
In short: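 Scores reflect clear reduction of NF-κB-luciferase signal versus baseline fold induction from EC50 poly(I:C) alone. Compounds tested in duplicate at three final concentrations (0.5, 5, 50 μg/ml) with ligand for 16 h stimulation of hTLR3-NFκB-293 cells plated overnight at 1.5×10^4 per well.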

Structure (SMILES)	hTLR3 (inhibitory effect, antagonist score)
CN1CCc2cc3c(c4c2C1Cc1ccccc1-4)OCO3.Cl (stereo not shown) [compound 669, Remerine hydrochloride]	— (compounds for which there was no clear down regulation even at 50 μg/ml)
COc1cc2nc(N3CCN(C(=O)C4COc5ccccc5O4)CC3)nc(N)c2cc1OC.CS(=O)(=O)O (stereo not shown) [compound 858, Doxazosin mesylate]	— (compounds for which there was no clear down regulation even at 50 μg/ml)
CN1CCc2cccc3c2[C@H]1Cc1ccc(O)c(O)c1-3.Cl [compound 101, Apomorphinehydrochloride (R, —)]	— (compounds for which there was no clear down regulation even at 50 μg/ml)
CN(C)C(=O)C(CCN1CCC(O)(c2ccc(Cl)cc2)CC1)(c1ccccc1)c1ccccc1 [compound 144, Loperamidehydrochloride]	11 (compounds for which there was clear down regulation only at 50 μg/ml)
CC(C)(C)c1ccc(C(O)CCCN2CCC(C(O)(c3ccccc3)c3ccccc3)CC2)cc1 (stereo not shown) [compound 138, Terfenadine]	11 (compounds for which there was clear down regulation only at 50 μg/ml)
CCN(CC)CCCNc1nc(-c2ccccc2)nc2ccccc12 [compound 2001]	11 (compounds for which there was clear down regulation only at 50 μg/ml)
COc1cc2c(cc1O)C[C@H]1c3c(cc(O)c(OC)c3-2)CCN1C [compound 600, Boldine]	— (compounds for which there was no clear down regulation even at 50 μg/ml)
CCN(CC)CCCC(C)Nc1nc(/C=C/c2ccc(Cl)cc2)nc2cc3ccccc3cc12 (stereo not shown) [compound 2000]	12 (compounds for which there was clear down regulation at 5 μg/ml and 50 μg/ml)
COc1cc2nc(N3CCN(C(=O)C4CCCO4)CC3)nc(N)c2cc1OC.Cl (stereo not shown) [compound 751, Terazosin hydrochloride]	— (compounds for which there was no clear down regulation even at 50 μg/ml)

same assay, conditions: hTLR3-NFκB-293 cells, with EC50 of poly(I:C); compound at 0.5, 5 and 50 μg/ml

Structure (SMILES)	hTLR3 (inhibitory effect)
CC[N+](C)(CC)CCC[n+]1c(-c2ccccc2)c2cc(N)ccc2c2ccc(N)cc21.[I-].[I-] [compound 792, Propidium iodide]	12 (compounds for which there was clear down regulation at 5 μg/ml and 50 μg/ml)
CCCCCCCCCCCC(=O)Nc1c2c(nc3ccccc13)N(C)CC2 [compound 1334]	— (compounds for which there was no clear down regulation even at 50 μg/ml)
Cc1ccc(-n2c(NCCO)nc3c(c2=O)C2(CCCCC2)Cc2ccccc2-3)cc1 [compound 1137]	13 (compounds for which there was clear down regulation at 0.5 μg/ml, 5 μg/ml, and 50 μg/ml)
COc1cc2cc3c4cc(OC)c(OC)cc4cc[n+]3c(C)c2cc1OC [compound 431, Coralyne chloridehydrate]	— (compounds for which there was no clear down regulation even at 50 μg/ml)
CN1CCCCc2c1nc1ccccc1c2N [compound 1185, 1-Methyl-2,3,4,5-tetrahydro-1H-azepino[2,3-b]quinolin-6-ylamine]	— (compounds for which there was no clear down regulation even at 50 μg/ml)
O=C1c2ccc(S(=O)(=O)c3ccc4c(c3)C(=O)N(c3ccccn3)C4=O)cc2C(=O)N1c1ccccn1 [compound 1163]	11 (compounds for which there was clear down regulation only at 50 μg/ml)
Cn1c(NN)nc2c(c1=O)C1(CCCC1)Cc1ccccc1-2 [compound 1213]	— (compounds for which there was no clear down regulation even at 50 μg/ml)
CN1CCc2c1nc1ccccc1c2NC(=O)CN1CCCCCC1 [compound 1003]	11 (compounds for which there was clear down regulation only at 50 μg/ml)
CN1CCc2c1nc1ccc(Br)cc1c2N [compound 1142, 6-Bromo-1-methyl-2,3-dihydro-1H-pyrrolo[2,3-b]quinolin-4-ylamine]	11 (compounds for which there was clear down regulation only at 50 μg/ml)
Nc1c2c(nc3ccccc13)N(Cc1ccccc1)CC2 [compound 1217, 1-Benzyl-2,3-dihydro-1H-pyrrolo[2,3-b]quinolin-4-ylamine]	12 (compounds for which there was clear down regulation at 5 μg/ml and 50 μg/ml)
O=c1[nH]c(NCCO)nc2c1C1(CCCC1)Cc1ccccc1-2 [compound 1322]	11 (compounds for which there was clear down regulation only at 50 μg/ml)
COc1ccc(Cc2nccc3cc(OC)c(OC)cc23)cc1OC.Cl [compound 583, Papaverinehydrochloride]	— (compounds for which there was no clear down regulation even at 50 μg/ml)
NNc1nc2c(c(=O)n1-c1ccccc1)C1(CCCC1)Cc1ccccc1-2 [compound 1320]	— (compounds for which there was no clear down regulation even at 50 μg/ml)
O=c1c2c(nc(NCCO)n1Cc1ccccc1)-c1ccccc1CC21CCCC1 [compound 926]	12 (compounds for which there was clear down regulation at 5 μg/ml and 50 μg/ml)
CCOc1ccc(Cc2nccc3cc(OCC)c(OCC)cc23)cc1OCC.Cl [compound 830, Ethaverinehydrochloride]	— (compounds for which there was no clear down regulation even at 50 μg/ml)
CCCCCCN(CCCCCC)CC(=O)Nc1c2c(nc3ccccc13)N(C)CC2 [compound 1224]	12 (compounds for which there was clear down regulation at 5 μg/ml and 50 μg/ml)
Cc1ccc2nc3c(c(N)c2c1)CCN3C [compound 1091, 1,6-Dimethyl-2,3-dihydro-1H-pyrrolo[2,3-b]quinolin-4-ylamine]	11 (compounds for which there was clear down regulation only at 50 μg/ml)
O=c1c2c(nc(NCCO)n1-c1ccccc1)-c1ccccc1CC21CCCC1 [compound 891]	11 (compounds for which there was clear down regulation only at 50 μg/ml)
O=C(CN1CCCC1)Nc1c2c(nc3ccccc13)N(c1ccccc1)CC2 [compound 1244]	11 (compounds for which there was clear down regulation only at 50 μg/ml)
CN1CCc2c1nc1ccccc1c2NC(=O)CN1CCN(c2ccccc2)CC1 [compound 1212]	— (compounds for which there was no clear down regulation even at 50 μg/ml)
NNc1nc2c(c(=O)n1C1CCCC1)C1(CCCC1)Cc1ccccc1-2 [compound 1248]	— (compounds for which there was no clear down regulation even at 50 μg/ml)
COc1ccc2cc3[n+](cc2c1OC)CCc1cc2c(cc1-3)OCO2.[Cl-] [compound 586, Berberine chloride]	11 (compounds for which there was clear down regulation only at 50 μg/ml)
O=C1c2ccc(Oc3ccc(S(=O)(=O)c4ccc(Oc5ccc6c(c5)C(=O)N(c5ccccn5)C6=O)cc4)cc3)cc2C(=O)N1c1ccccn1 [compound 1367]	12 (compounds for which there was clear down regulation at 5 μg/ml and 50 μg/ml)
CN1CCc2c1nc1ccccc1c2N [compound 990, 1-Methyl-2,3-dihydro-1H-pyrrolo[2,3-b]quinolin-4-ylamine]	— (compounds for which there was no clear down regulation even at 50 μg/ml)
CN(C)CCN(Cc1ccc(Cl)cc1)c1ccccn1.Cl [compound 807, Chloro-pyraminehydrochloride]	— (compounds for which there was no clear down regulation even at 50 μg/ml)
